In assay [1] the test system is LPS-Induced TNF-α Production From the Murine Cell Line WEHI-265. The assay can be described thus: In vitro inhibition of LPS-induced TNF-α production from the murine cell line WEHI-265. Type of assay: cell-based. To be noted: Mus musculus, WEHI-265 cells, LPS from E. coli 0111:B4, 20-24 h incubation. On the procedure: This test procedure is a standard test used to determine anti-TNF-α activity and to evaluate the usefulness of said compounds for counteracting the biological effects of TNF-α.
1. In Vitro Study: Inhibition of LPS-Induced TNF-α
Production From the Murine Cell Line WEHI-265
1) Cells (obtained from cell cultures containing≤10^6 cells/ml) are suspended at 0.2×10^6 cells/ml in complete medium (RPMI1640, with 10% FCS, 10^-5 M 2-ME, 2 mM glutan-fine and 10 mM HEPES buffer) and plated in CoStar 24 well plates (1.0 ml/well).
2) Compounds are dissolved in the appropriate vehicle at 400 times the concentration to be tested, and 5 μl of compound is added to the wells.
3) LPS (from E. coli 0111:B4) is diluted to 6 μg/ml and 1.0 ml is added to wells.
4) Plates are incubated 20-24 hours in 37° CO2 incubator.
5) Supernatant fluids are collected and analyzed for TNF content as described in J. Immunol., 142:3884.

The subject of another assay is LPS-Induced Serum TNF. The assay can be described thus: In vivo inhibition of LPS-induced serum TNF in mice. Further details: species or system mice (C57BI/6J). To be noted: Mus musculus, 1.5 h; 25 mg/kg oral or i.p. one hour before LPS (50 μg i.p.); bled 90 min after LPS; ELISA; values may have a wide margin of error. How it is done: In addition to the in vitro test described above, the following in vivo test was also performed on several of the compounds of the present invention.
1. In Vivo Study: Inhibition of LPS-Induced Serum TNF
Mice (C57BI/6J males, 6-8 weeks of age) are dosed with the indicated compound (dissolved in CMC suspension vehicle; compounds are given orally or i.p. one hour before LPS challenge).
Mice are bled 90 min after LPS challenge.
4) Sera are analyzed for TNF content by ELISA as described in J. Immunol.
(An ELISA detects its analyte on a solid surface through an enzyme-linked reagent.)

In assay [2] the test system is LPS/Galactosamine-Induced Lethality. The assay can be described thus: In vivo inhibition of LPS/galactosamine-induced lethality in mice. Set-up: species or system mice (C57BI/6J). To be noted: 25 mg/kg oral or i.p. one hour before LPS (100 ng) and d-galactosamine (8 mg) i.p.; survival at 24 hours. On the procedure: This test procedure is a standard test used to determine activity against septic shock.
3. In Vivo Study: Inhibition of LPS/Galactosamine-Induced Lethality.
1) Mice (C57BI/6J males, 6-8 weeks of age) are dosed with the indicated compound (dissolved in CMC suspension vehicle; compounds are given orally or i.p. one hour before challenge with LPS and d-galactosamine).
2) Mice are challenged i.p. with a mixture of LPS (from E. coli 0111:B4; 100 ng) and d-galactosamine (8 mg).
3) Survival is determined 24 hours after challenge. See procedure published in J. Exp. Med. 165:657 (1987)

The record followed here is patent US5574173A, “Tricyclic derivatives, compositions and methods of use” (Schering Corporation, priority 1993, dated 1996).

As a reminder, the inhibition is the relative decrease from the control value, in per cent. The inhibition in vivo is the relative decrease from the control value, in per cent. Lower therefore signals a weak effect.

With `C=CCC(CNC)C1c2ccccc2COc2ccccc21` (stereo not shown) [Compound IA, N-methyl-2-[6,11-dihydro-dibenzo[b,e]oxepin-11-yl]-pent-4-en-1-amine], the inhibition at 10 µM in assay [1] turned out to be 54%. This compound also registered an inhibition in vivo at 25 mg/kg with LPS-Induced Serum TNF of 44%.

The compound `CCOC(CN(C)C)C1c2ccccc2CCc2ccccc21` (stereo not drawn) [Compound IB, β-ethoxy-10,11-dihydro-N, N-dimethyl-5 H-dibenzo[a,d]cycloheptene-5-ethanamine] showed an inhibition at 10 µM in assay [1] of 35%. Further, in assay [2], the “# DEAD/TOTAL AT 25 MG/KG” value is given as 8/10. At 25 mg/kg the inhibition in vivo in the assay with LPS-Induced Serum TNF was 25%.

`C=CC(CCN(C)C)C1c2ccccc2CCc2ccccc21` (stereo not shown) [Compound IC, 3-(10,11-dihydro-5H-dibenzo[a,d]cyclohepten-5-yl)-N,N-dimethyl-4-pentenamine] registered an inhibition at 10 µM in assay [1] of 46%. Consider `CCOC(C(=O)N(C)C)C1c2ccccc2CCc2ccccc21` (stereo not shown) [Compound IE, 2-ethoxy-2-[10,11-dihydro-5H-dibenzo[a,d]cyclohepten-5-yl]-N,N-dimethyl-acetamide], for which the inhibition at 10 µM in assay [1] amounted to 49%. Moreover, the “# DEAD/TOTAL AT 25 MG/KG” value in assay [2] was 10/10. Moreover, the inhibition in vivo at 25 mg/kg in the assay with LPS-Induced Serum TNF worked out at 37%. The corresponding values for `CNCCC1c2ccccc2CCc2ccccc21` [Compound K1] are 15%, 1/10 and 71%. The corresponding values for `CCCC(CN(C)C)C1c2ccccc2COc2ccccc21` (stereo not shown) [Compound K2] are 54%, 7/10 and 40%. In turn, `CCCC(CNC)C1c2ccccc2COc2ccccc21` (stereo not shown) [Compound K3, N-methyl-2-[6,11-dihydro-dibenzo[b,e]oxepin-11-yl]-pentanamine] showed an inhibition at 10 µM in assay [1] of 73%. The same compound registered an inhibition in vivo at 25 mg/kg with LPS-Induced Serum TNF of 27%. `CCCC(CN(C)C(=O)OCC)C1c2ccccc2COc2ccccc21` (stereo not shown) [Compound K4]: in assay [1], the inhibition at 10 µM came out at 48%. For the compound `CCCC(CN(C)C(C)=O)C1c2ccccc2COc2ccccc21` (stereo not shown) [Compound K5], the inhibition at 10 µM in assay [1] was determined as 46%. Further, in assay [2], the “# DEAD/TOTAL AT 25 MG/KG” value was 10/10. `CCCC(CN(C)C)C1c2ccccc2CCc2ccc(Cl)cc21` (stereo not shown) [Compound K6]: the inhibition at 10 µM in assay [1] worked out at 64%.

`CCCC(CNC)C1c2ccccc2CCc2ccc(Cl)cc21` (stereo not shown) [Compound K7] yielded an inhibition at 10 µM in assay [1] of 39%. In addition, testing at 25 mg/kg in the assay on LPS-Induced Serum TNF gave an inhibition in vivo of 58%. Turning to `CN(C)CC(O)C1c2ccccc2CCc2ccccc21` (stereo not shown) [IF], the inhibition at 10 µM in assay [1] was 4%. In addition, the “# DEAD/TOTAL AT 25 MG/KG” value in assay [2] is reported as 8/10. The same compound registered an inhibition in vivo at 25 mg/kg in the assay with LPS-Induced Serum TNF of 24%. Compound `CCOC(CNC)C1c2ccccc2CCc2ccccc21` (stereo not shown) [IG] had an inhibition at 10 µM in assay [1] of 35%. In addition, the “# DEAD/TOTAL AT 25 MG/KG” value in assay [2] is 7/9. This compound had an inhibition in vivo at 25 mg/kg with LPS-Induced Serum TNF of 51%. In the case of `C=CCC(CN(C)C)C1c2ccccc2COc2ccccc21` (stereo not shown) [IH], testing at 10 µM in assay [1] gave an inhibition of 23%. Moreover, in the assay on LPS-Induced Serum TNF, at 25 mg/kg the inhibition in vivo was 30%.

`C=CCC(CN(C)C(C)=O)C1c2ccccc2COc2ccccc21` (stereo not shown) [IJ] displayed an inhibition at 10 µM in assay [1] of 34%. Same read-out and setting: next, `C=CCC(CN(C)C(=O)OCC)C1c2ccccc2COc2ccccc21` (stereo not shown) [IK]: 31%. For the compound `C=CCC(CN(C)C(C)=O)C1c2ccccc2CCc2ccc(Cl)cc21` (stereo not shown) [IL], the inhibition at 10 µM in assay [1] came out at 49%. In the assay with LPS-Induced Serum TNF, this compound came in with an inhibition in vivo at 25 mg/kg of 42%. Consider `C=CCC(CN(C)C)C1c2ccccc2CCc2ccc(Cl)cc21` (stereo not shown) [IM], for which, in assay [1], testing at 10 µM gave an inhibition of 50%. Still for that read-out and setting: next, `C=CCC(CNC)C1c2ccccc2CCc2ccc(Cl)cc21` (stereo not shown) [IN]: 28%.
